According to PubChem BioAssay (NCI):
Where “and” joins values, the source holds several entries; their conditions need not be identical. Equal entries are not always repeated.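 Results reflect a 48-hour exposure of cells in 96-well plates to compound at five concentrations. GI50 is the concentration that inhibits growth by half. TGI marks complete inhibition of growth.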

Experiments:
Assay in all cases: growth of human tumour cells (NCI), 48 h
DLD-1 colon = system: DLD-1 colon
RXF-631 renal = system: RXF-631 renal
LXFL 529 NSCLC = system: LXFL 529 NSCLC
XF 498 CNS = system: XF 498 CNS
DMS 114 small cell lung = system: DMS 114 small cell lung
HOP-18 NSCLC = system: HOP-18 NSCLC
M19-MEL melanoma = system: M19-MEL melanoma
KM20L2 colon = system: KM20L2 colon
MDA-N = system: MDA-N

| SMILES | TGI (DLD-1 colon) | TGI (RXF-631 renal) [µM] | TGI (LXFL 529 NSCLC) | TGI (XF 498 CNS) | TGI (DMS 114 small cell lung) | TGI (HOP-18 NSCLC) | TGI (M19-MEL melanoma) | TGI (KM20L2 colon) | TGI (MDA-N) [µM] | GI50 (DLD-1 colon) [µM] | GI50 (LXFL 529 NSCLC) [µM] | GI50 (XF 498 CNS) [µM] | GI50 (DMS 114 small cell lung) [µM] | GI50 (HOP-18 NSCLC) [µM] | GI50 (M19-MEL melanoma) [µM] | GI50 (KM20L2 colon) [µM] |
| --- | --- | --- | --- | --- | --- | --- | --- | --- | --- | --- | --- | --- | --- | --- | --- | --- |
| O=C(Nc1cc(Cl)ccc1Cl)C(=O)C(c1cnc2ccccc2n1)[N+](=O)[O-] (centres undefined) | > 100 µM | > 100 | > 100 µM | > 100 µM | > 100 µM | > 100 µM | > 100 µM | > 100 µM |  |  |  |  |  |  |  |  |
| Cc1ccc(C2(O)CC(c3ccc([N+](=O)[O-])o3)=NN2C(=O)COc2ccc(Cl)cc2)cc1 (centres undefined) | > 100 µM |  | 10.9 µM | 26.9 µM | 83.8 µM | > 100 µM | 19.7 µM | 44.1 µM |  |  |  |  |  |  |  |  |
| Cc1c(C2=C(Br)C(=O)N(C)C2=O)c(=O)n(C)c(=O)n1C |  |  |  |  |  |  |  |  | 77.8 |  |  |  |  |  |  |  |
| N#CC(=NCCO)C1=C(O)c2ccccc2C1=O |  |  |  |  |  |  |  |  | > 100 |  |  |  |  |  |  |  |
| Nc1ccn(C2(CO)C=C(CO)C(O)C2O)c(=O)n1 (centres undefined) | > 25.8 µM |  | > 25.8 µM |  | > 25.8 µM | > 25.8 µM | > 25.8 µM | > 25.8 µM |  |  |  |  |  |  |  |  |
| COC(=O)/C(C=O)=C/Sc1ccccc1 | 66 µM | 45.7 | 78.9 µM | > 100 µM | 41 µM | > 100 µM | 55.7 µM | 94.7 µM |  |  |  |  |  |  |  |  |
| C[n+]1cc(C(O)c2ccc3c(c2)OCO3)c2ccccc2c1 (centres undefined) | > 100 µM | > 100 |  |  | 83.5 µM |  | > 100 µM | > 100 µM |  |  |  |  |  |  |  |  |
| CN[C@@H](C)[C@H](NC)c1ccccc1 | > 100 µM | > 100 | > 100 µM |  | > 100 µM | > 100 µM | > 100 µM |  |  |  |  |  |  |  |  |  |
| COc1cccc(-n2c3nc(=O)n(C)c(=O)c-3nc3ccccc32)c1 | 96.1 µM | 76.7 | 81.8 µM | 42.7 µM | 25.4 µM | > 100 µM | 6.1 µM | 62.6 µM |  |  |  |  |  |  |  |  |
| CC(=O)c1sc(-c2nc(C)c(C(=O)/C=C\c3ccc(/C=C\C(=O)c4sc(-c5nc(C)c(C(C)=O)s5)nc4C)cc3)s2)nc1C | > 100 µM |  | > 100 µM | > 100 µM | > 100 µM | > 100 µM | > 100 µM | > 100 µM |  |  |  |  |  |  |  |  |
| C[C@]12CC[C@H](O)C[C@H]1CC[C@@H]1[C@@H]2CC[C@]2(C)[C@@H](C3=CC(=O)OC3)CC[C@]12O |  |  |  |  |  |  |  |  | 0.806 |  |  |  |  |  |  |  |
| CC12CCCCC1(C)C2Sc1ccccc1 (centres undefined) | > 100 µM | > 100 | > 100 µM | 66.3 µM | > 77.8 µM | > 100 µM | > 94.5 µM | > 100 µM |  |  |  |  |  |  |  |  |
| COc1ccc2c(c1)[C@@]13CCCC[C@H]1[C@@H](C2)N(C)CC3=O |  |  |  |  |  |  |  |  | 28.9 |  |  |  |  |  |  |  |
| COC(=O)CCC(=O)CC1CC(=O)C2CCCN12 (centres undefined) | > 100 µM |  | > 100 µM | > 100 µM | > 100 µM | > 100 µM | > 100 µM | > 100 µM |  |  |  |  |  |  |  |  |
| CC(C)(C=O)CC(C#N)/C(=N\NC(N)=O)C(=O)Nc1ccccc1C(N)=O (centres undefined) |  |  | > 100 µM | > 100 µM |  |  | > 100 µM | > 100 µM |  |  |  |  |  |  |  |  |
| COc1ccc(C2c3cc(OC)c(OC)cc3C(Cc3ccc([N+](=O)[O-])cc3)C2c2ccc([N+](=O)[O-])cc2)cc1OC (centres undefined) | > 100 µM | > 100 | > 100 µM | > 100 µM | > 100 µM |  | > 100 µM | > 100 µM |  |  |  |  |  |  |  |  |
| C=C1C[C@]23CCC4C(C)(C)C(=O)CC[C@]4(C)C2C[C@H]1C(O)C3=O (some centres undefined) | > 75 µM | > 75 | > 75 µM | > 75 µM |  | > 75 µM | > 75 µM | > 75 µM |  |  |  |  |  |  |  |  |
| CCOC(=O)c1c[nH]c2oc(/C=N/N3CC(CN4CCOCC4)OC3=O)cc2c1=O (centres undefined) |  |  |  |  |  |  |  |  | > 100 |  |  |  |  |  |  |  |
| C[C@@]12CCCc3coc(c31)C(=O)c1cc3c(cc12)C(=O)C=CC3=O | > 1 µM and 6.07 µM |  | > 1 µM and 28.2 µM | > 1 µM and 29.6 µM | > 1 µM and 39.9 µM | > 1 µM and 28.2 µM | > 1 µM and 28 µM | > 1 µM and 35.1 µM |  | > 1 | > 1 | > 1 | > 1 | > 1 | > 1 | > 1 |
| Cc1cc(C)c(C2[C@H]3C(=O)N(c4ccc(Cc5ccc(N6C(=O)[C@@H]7ON(c8ccccc8)C(c8c(C)cc(C)cc8C)[C@@H]7C6=O)cc5)cc4)C(=O)[C@H]3ON2c2ccccc2)c(C)c1 (some centres undefined) | > 100 µM | > 100 | > 100 µM |  | > 100 µM | > 100 µM | > 100 µM | > 100 µM |  |  |  |  |  |  |  |  |
